USRE46907E1, “Suppression of cancer growth and metastasis using nordihydroguaiaretic acid derivatives with metabolic modulators” (THE JOHNS HOPKINS UNIVERSITY, priority 2008, dated 2018)
Peptide text beside a SMILES is read from it. * marks the point of attachment. Cbz = O=C(OCc1ccccc1)*; CH2F = FC*

Tests used:
4T1 cells [1] = experiment: TUNEL apoptosis assay in 4T1 cells; assay type: cell-based, mouse
Protocol: (§1) Cell Culture Either cell line 4T1 or 67NR was a gift from Dr. Miller (20). The cells were cultured in RPMI1640 medium supplemented with glucose (14 mM), pyruvate (1 mM), penicillin (100 units/ml), streptomycin (100 μg/ml), and fetal bovine serum (10%), buffered with 25 mM HEPES (pH 7.4). LNCaP human prostate cancer cell line was purchased from American Type Culture Collection (Manassas, Va.). The cell line was cultured in RPMI1640 medium supplemented with glucose (14 mM), pyruvate (1 mM), penicillin (100 units/ml), streptomycin (100 μg/ml), and fetal bovine serum (10%). Drugs were dissolved in dimethyl sulfoxide (DMSO) at a suitable concentration so that the final concentration of DMSO in the medium was less than 0.1%.
(§2) Apoptosis assay: Simple TLTNEL assay was conducted by using TUNEL apoptosis detection kit (Upstate, Temecula, Calif.) with some modification. For the evaluation of the effect of PKCδ wild type and dominant negative vectors on TUNEL-positive cell death, we first transfected 4T1 or 67NR cells with these vectors by effectene (Qiagen, Valencia, Calif.). Wild type PKCδ vector is constructed from wild type PKCδ gene and pEGFP (Promega, Madison, Wis.). Dominant negative PKCδ vector is constructed from PKCδ gene mutated at a 376th amino acid residue (threonine) and pEGFP (Promega, Madison, Wis.) This threonine residue is located in ATP-binding domain of protein kinase Cδ, and therefore essential for any kinase reaction of the protein so that this mutant protein supposedly function as dominant negative. As a control we used pEGFP-N3 vector was used. These vectors contain green fluorescent protein (GFP) gene to be used as a transfection marker. The vectors are kind gifts from Dr. Yuspa (National Institutes of Health, Bethesda, Md.) (88). Twenty four hours after transfection, the cells were treated with M4N, Rottlerin, or Ly294002. Then 24 hrs after this treatment with these reagents, the cells were fixed with 10% formaldehyde in phosphate buffered saline without calcium and magnesium (PBS (−)). The cells were then incubated with rabbit anti-GFP antibody (MBL International, Woburn, Mass.) followed by treatment with anti-rabbit IgG antibody conjugated with fluorescein (Promega, Madison, Wis.). TUNEL staining was conducted by using TUNEL apoptosis detection kit (Upstate, Temecula, Calif.) except for using Streptavidin-Alexa Fluor 568 (Molecular Probes, Eugene, Oreg.) instead of Avidine-Rhodamine contained in the kit. Cell death was evaluated by dividing the number of TUNEL-positive cells among the cells positive with anti-GFP staining by the number of these GFP-positive cells.

67NR cells [2] = experiment: TUNEL apoptosis assay in 67NR cells; assay type: cell-based, mouse
Protocol: as §1, §2

HIF [3] = experiment: Western blotting of HIF in 4T1 cells; assay type: cell-based, mouse; conditions: 4T1, 5 hrs
Protocol: (§3) Western blotting: After cells had been grown in 25 mm^2 flasks and treated with reagents, the cells were washed with PBS (−) three times and suspended in RIP A buffer (150 mM NaCl, 50 mM Tris-HCl (pH 8,0), 0.1% SDS, 1% NP40, and 0.5% deoxycholate) supplemented with protease inhibitor cocktail (Calbiochem, San Diego, Calif.). The sample volumes were adjusted by the total protein amount. Protein assay was performed by Bio-Rad Protein Assay (Bio-Rad Laboratories, Inc. Hercules, Calif.). The samples were resolved by the standard SDS-polyacrylamide gel electrophoresis and transferred to nitrocellulose membrane (Amersham Biosciences, Bjorkgatan, Sweden). The membranes were blocked with skim milk, and incubated with primary antibodies at 4° C. overnight and then with secondary antibody conjugated with horse radish peroxidase at room temperature for 2 hrs. The signals were detected by western blot chemiluminescence reagent plus (New England Nuclear Life Science Products, Boston, Mass.).

PKCδ [4] = experiment: Western blotting of total PKCδ and phosphor-PKCδ (Thr505) in 4T1 cells; assay type: cell-based, mouse; conditions: 4T1, 5 hrs; M4N 80 μM, Ro 5 μM, Ly 20 μM, Des 150 μM
Protocol: as §3, with “The” for “Western blotting: After cells had been grown in 25 mm^2 flasks and treated with reagents, the cells were washed with PBS (−) three times and suspended in RIP A buffer (150 mM NaCl, 50 mM Tris-HCl (pH 8,0), 0.1% SDS, 1% NP40, and 0.5% deoxycholate) supplemented with protease inhibitor cocktail (Calbiochem, San Diego, Calif.). The”

HIF [5] = experiment: Western blotting of HIF in 67NR cells; assay type: cell-based, mouse; conditions: 5 hrs
Protocol: as §3

PKCδ [6] = experiment: Western blotting of total PKCδ and phosphor-PKCδ (Thr505) in 67NR cells; assay type: cell-based, mouse; conditions: 5 hrs, M4N 80 μM, Ro 5 μM, Ly 20 μM, Des 150 μM
Protocol: as §3, with “The” for “Western blotting: After cells had been grown in 25 mm^2 flasks and treated with reagents, the cells were washed with PBS (−) three times and suspended in RIP A buffer (150 mM NaCl, 50 mM Tris-HCl (pH 8,0), 0.1% SDS, 1% NP40, and 0.5% deoxycholate) supplemented with protease inhibitor cocktail (Calbiochem, San Diego, Calif.). The”

[7] = tested on: PDK-1/Akt pathway-related proteins; experiment: Western blotting of PDK-1/Akt pathway-related proteins in 4T1 cells; assay type: cell-based, mouse; conditions: 4T1, 5 hrs after treatment, M4N 80 μM, Desferoxamine 75 or 150 μM
Protocol: as §3

PKCδ [8] = experiment: Immunocytochemistry of PKCδ cellular localization in 4T1 cells; assay type: cell-based, mouse; conditions: 4T1, 5 hrs; for nuclear staining for phosphor-PKCδ (Thr505): without Desferoxamine co-treatment
Protocol: (§4) Immunocytocheimstry: Cells were cultured on glass cover slips coated with poly-L-ornithine (Sigma, Saint Louis, Mo.). At 5 hrs after treatment with drugs, the cells were fixed with 10% formaldehyde in diluted in PBS (−) and washed with PBS (−) three times. After permeabilized by 0.2% Tryton X-100 and 1% goat serum diluted in PBS (−), the cells were blocked by PBS (−) containing 5% goat serum. The cells were then incubated with primary antibodies diluted in PBS (−) containing 0.5% bovine serum albumin (BSA), and with secondary antibodies, which is either anti-IgG conjugated with fluorescein (Vector Laboratories. Burlingame, Calif.), diluted in PBS (−) containing 0.5% BSA. The cells were observed through Zeiss fluorescent microscope (Carl Zeiss, Thornwood, N.Y.).

LNCaP tumors = experiment: Nude mice orthotropically implanted with LNCaP tumors, about eight times tumor volume, treatment from day 3; assay type: in vivo, mouse
Protocol: Surgical orthotropic implantation of LNCaP tumors: LNCaP cells were grown as described above. Cells growing subconfluently were collected and resuspended into the tissue culture medium without fetal bovine serum and antibiotics. After counting the number of the cells, the cell concentration was adjusted using the same medium. After 20 μl of the medium containing a selected number of cancer cells (about 5×10^7 cells) had been mixed together with the same volume of Matrigel (BD science, Bedford, Mass.), the combined solution was injected into the skin of nude mice. […] The tumor tissue extracted from the skin was excised into pieces of about 2 mm diameter. After nude mice were anesthetized by 2,2,2-Tribromoethanol (Aldrich Chemical Co. Inc., Milwaukee, Wis.), a small incision was made at the abdomen of each mouse and a tumor tissue piece was implanted in the neighbor of the prostate of each mouse. Eight days after the operation, the injection of drugs was initiated, and the drugs were injected intravenously every day for the indicated periods
As in the previous experiment (FIGS. 9 to 13), in this study we administered M4N, Ly, Ro, Etoposide, or Rapamycin to mice intravenously using CPE (25/30) solvent system (87). […] However, in this experiment we implanted about eight times the volume of tumors as in the previous experiments to detect the difference of efficacy of various combination treatments much faster. We started to treat the mice with combination treatments three days after the implantation instead of eight days, considering that the tumor volume is already large at the time of implantation in this experiment. This allows less time for possible metastasis to the transplanted tumors in this experiment than in the previous one.

[9] = tested on: LNCaP human prostate cancer cells; assay type: cell-based; conditions: for effect on TUNEL-positive cell death induced by M4N: 24 hrs
Protocol: as §1, §2

4T1 cells [10] = experiment: 4T1 tumor-bearing Balb/c mice (life-span, tumor size); assay type: in vivo, mouse; conditions: 5×10^4 cells, M4N 1 mg/shot, Rottlerin 100 μg/shot, three days a week from day 7
Protocol: (§5) Animals: Female Balb/e mice were obtained from Charles River Laboratories (Wilmington, Mass.). M4N and Rottlerin were dissolved into a solvent, CPE (25/30) solvent system supplied by Erimos Pharmaceutical, L.L.C. (Raleigh, N.C.) and injected into mice either intravenously or intraperitoneally, T-cell deficient male nude mice (nu/nu) were obtained from Charles River Laboratories (Wilmington, Mass.). M4N and Ly294002 were dissolved into a solvent, CPE (25/30) solvent system supplied by Erimos Pharmaceutical, L.L.C. (Raleigh, N.C.) and injected into mice intravenously.
(§6) Tumor inoculation: Either 4T1 or 67NR cells were grown as described above. Cells growing subconfluently were collected and resuspended into the tissue culture medium minus fetal bovine serum and antibiotics, After counting the number of the cells, the cell concentration was adjusted. Twenty μl of the solution containing a selected number of cancer cells (either 5×10^3 or 5×10^4 cells) was injected into each fat pad of a pair of mammary glands located close to lower limbs. Tumor size was measured by weighing tumors extracted from mouse cadavers.

PKCδ [11] = experiment: Immunocytochemistry of PKCδ cellular localization in LNCaP cells; assay type: cell-based, human; conditions: 5 hrs
Protocol: as §4

[12] = tested on: LNCaP human prostate cancer cells; experiment: MTT cell growth assay in LNCaP cells; assay type: cell-based; conditions: 24 hrs, M4N 80 μM, Ro 5 μM, Ly 20 μM
Protocol: as §1
MTT assay: Cells were incubated in PBS (−) supplemented with 5% fetal calf serum and 0.5 mg/ml MTT, 3-(4,5-Dimethylthiazol-2-yl)-2,5-diphenyltetrazolium bromide (Sigma, Saint Louis, Mo.) for 2 hrs. After the incubation, the cells were dissolved in dimethyl sulfoxide and the color of the solutions was measured by a spectrophotometer at wavelengths of 540 and 690 nm. The values correlated with viable cell numbers were obtained by subtracting the optical density at 690 nm from that, at 540 nm.

caspase-9 = experiment: Western blotting of caspase-9 cleavage in 67NR cells; assay type: cell-based, mouse; conditions: 5 hrs, Rottlerin 5 μM, M4N 80 μM
Protocol: as §3

67NR cells [13] = experiment: 67NR tumor-bearing Balb/c mice (life-span); assay type: in vivo, mouse; conditions: 5×10^4 cells, M4N 1 mg/shot, Rottlerin 100 μg/shot, three days a week from day 8
Protocol: as §5, §6

[14] = tested on: mitochondrial membrane potential; experiment: Mitochondrial membrane potential; assay type: cell-based
[15] = 4T1, 24 hrs, with M4N 80 μM, Rottlerin 5 μM, Desferoxamine 150 μM
[16] = 26 hrs, with M4N 80 μM, Rottlerin 5 μM, Desferoxamine 150 μM

COC(=O)C[C@H](NC(=O)[C@H](C)NC(=O)[C@@H](NC(=O)OCc1ccccc1)C(C)C)C(=O)CF [zVAD, zVAD-fmk] (Cbz-Val-Ala-Asp(OMe)-CH2F)
effect of pan-caspase inhibitor on drug-induced TUNEL-positive cell death (4T1 cells [1]; 4T1, zVAD 50 μM added 30 minutes before other drugs): didn't affect TUNEL-positive cell death
effect of pan-caspase inhibitor on drug-induced TUNEL-positive cell death (67NR cells [2]; zVAD 50 μM, 42 hrs): didn't affect TUNEL-positive cell death

O=c1c(-c2ccc(O)cc2)coc2cc(O)cc(O)c12 [Genistein]
effect on TUNEL-positive cell death induced by M4N with either Ro or Ly (4T1 cells [1]; 4T1, Genistein 50 μM, 28 hrs): significantly suppressed the cell death

CC(=O)N(O)CCCCCNC(=O)CCC(=O)N(O)CCCCCNC(=O)CCC(=O)N(O)CCCCCN.CS(=O)(=O)O [Desferoxamine, Desferoxamine mesylate]
HIF stabilization (HIF [3]): induced HIF stabilization
amount of phosphorylated PKCδ at Thr505 (PKCδ [4]): induced phosphorylation
HIF stabilization (HIF [5]): induced HIF stabilization
amount of phosphorylated PKCδ at Thr505 (PKCδ [6]): induced phosphorylation
expression of phosphorylated PDK (Ser241), Akt (Ser473), PRAS40 (Thr246), Raf (Ser259), MEK (Ser217/221) [7]: not much effect
effect on cell death induced by M4N (4T1 cells [1]; [15]): generally augmented cell death even more
effect on cell death induced by M4N (4T1 cells [1]; 4T1, 48 hr, Desferoxamine 300 μM with M4N 80 μM): enhanced cell death induced by M4N
effect on cell death induced by M4N (67NR cells [2]; [16]): generally augmented cell death even more
effect on cell death induced by M4N (67NR cells [2]; 48 hr, Desferoxamine 300 μM with M4N 80 μM): enhanced cell death induced by M4N
cellular distribution / nuclear staining of total PKCδ (PKCδ [8]): did not modulate much nuclear staining
nuclear staining for phosphor-PKCδ (Thr505) (PKCδ [8]): only moderately increased nuclear staining

COc1cc([C@@H]2c3cc4c(cc3[C@@H](O[C@@H]3O[C@@H]5CO[C@@H](C)O[C@H]5[C@H](O)[C@H]3O)[C@H]3COC(=O)[C@H]23)OCO4)cc(OC)c1O [Etoposide]
mice with lung metastasis lesions (LNCaP tumors; combination groups at 80 days after tumor implantation): 3 out of 5
time after implantation by which all mice died (LNCaP tumors; mouse, in vivo): ≤ 24 days
effect on TUNEL-positive cell death induced by M4N [9]: synergistically augmented TUNEL-positive cell death induced by M4N

O=C([O-])C(Cl)Cl.[Na+] [Dichloroacetate, Sodium Dichloroacetate]
effect on TUNEL-positive cell death induced by M4N [9]: synergistically augmented TUNEL-positive cell death induced by M4N

CC(=O)c1c(O)c(C)c(O)c(Cc2c(O)c3c(c(C(=O)/C=C/c4ccccc4)c2O)OC(C)(C)C=C3)c1O [Rottlerin]
life-span of 4T1-bearing mice (4T1 cells [10]): didn't extend the life-span
amount of phosphorylated PKCδ at Thr505 (PKCδ [4]): induced phosphorylation
expression and nuclear level of total PKCδ (PKCδ [11]): Neither M4N, Ro, nor Ly treatment caused any remarkable change
nuclear expression of phosphor-PKCδ (Thr507) (PKCδ [11]): augmented
cell growth (MTT) [12]: suppressed cell growth to some extent
caspase-9 activation (cleavage) (caspase-9): a small amount of caspase-9 is activated
amount of phosphorylated PKCδ at Thr505 (PKCδ [6]): induced phosphorylation
life-span of 67NR-bearing mice (67NR cells [13]): didn't have much effect on the life-span
TUNEL-positive cell death ([9]; 28 hrs, M4N 80 μM, Ro 5 μM, Ly 20 μM): has no effect
effect on cell death induced by M4N ([9]; 28 hrs, with M4N 80 μM): synergistically augmented cell death induced by M4N
cell death with M4N over a broad range of concentrations ([9]; different concentrations of drugs): induced cell death synergistically
cytotoxicity alone ([9]; tissue culture): non-cytotoxic
TUNEL-positive cell death (4T1 cells [1]; 4T1, 24 hrs, M4N 80 μM, Rottlerin 5 μM, Ly294002 20 μM): Neither Ro nor Ly alone induced TUNEL-positive cell death
TUNEL-positive cell death with M4N in cells transfected with control vectors (4T1 cells [1]; 4T1, 24 hrs, control vector): induced cell death synergistically with M4N
effect on cell death induced by M4N (4T1 cells [1]; [15]): greatly enhanced cell death induced by M4N
TUNEL-positive cell death with M4N in cells transfected with control vectors (67NR cells [2]; 24 hrs, control vector): induced cell death synergistically with M4N
TUNEL-positive cell death (67NR cells [2]; 26 hrs, M4N 80 μM, Rottlerin 5 μM, Ly294002 20 μM): Neither Ro nor Ly alone induced TUNEL-positive cell death
effect on cell death induced by M4N (67NR cells [2]; [16]): enhanced to some extent cell death induced by M4N
depolarization of mitochondrial membrane potential [14]: depolarized mitochondrial membrane potential
cellular distribution / nuclear staining of total PKCδ (PKCδ [8]): did not change much
nuclear staining for phosphor-PKCδ (Thr505) (PKCδ [8]): augmented staining
